Consider 8 molecules from ChEMBL document CHEMBL3400084, “Synthesis and evaluation of tetrahydroindazole derivatives as sigma-2 receptor ligands” (Bioorg Med Chem, 2015).

Assay [1] in a line: Displacement of [3H]-di-o-tolylguanidine from sigma 2 receptor in Sprague-Dawley rat liver membranes after 120 mins by beta counting in presence of (+)-pentazocine. It counts as cell membranes, Membrane. For orientation: Loss of bound radioactivity is the signal in a displacement assay; it reports binding, not function.
For assay [2], the target named is Sigma non-opioid intracellular receptor 1 (Cavia porcellus, UniProt Q60492). The assay can be described thus: Displacement of (+)-[3H]pentazocine from sigma 1 receptor in guinea pig brain homogenate after 120 mins by beta counting. Type of assay: tissue-based.
Chain of Sigma non-opioid intracellular receptor 1 (Q60492 whole entry): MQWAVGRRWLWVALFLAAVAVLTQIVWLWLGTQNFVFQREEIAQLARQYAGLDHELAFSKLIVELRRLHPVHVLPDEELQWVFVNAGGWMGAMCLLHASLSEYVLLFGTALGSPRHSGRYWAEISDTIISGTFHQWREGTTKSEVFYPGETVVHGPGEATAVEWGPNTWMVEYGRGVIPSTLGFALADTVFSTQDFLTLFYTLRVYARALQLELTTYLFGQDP
The nature of assay [3]: Selectivity ratio of Ki for sigma 1 receptor in guinea pig brain homogenate to Ki for sigma 2 receptor in Sprague-Dawley rat liver membranes. It counts as cell membranes.

For the molecule `COc1cc2c(cc1OC)CN(CCCNc1cc(-n3nc(C)c4c3CC(C)(C)CC4=O)ccc1C(N)=O)CC2`, the Ki (as a rule, the equilibrium dissociation constant of an inhibitor or competing ligand from its target) in assay [1] was 89.8 nM; in assay [2], > 1000 nM. In addition, in assay [3], the Ratio Ki was > 11.
Regarding `COc1cc2c(cc1OC)CN(c1cc(-n3nc(C)c4c3CC(C)(C)CC4=O)ccc1C(N)=O)CC2`, the Ki in assay [1] is 18400 nM; in assay [2], > 1000 nM.
Take `COc1cc2c(cc1OC)CN(CCCCCNc1cc(-n3nc(C)c4c3CC(C)(C)CC4=O)ccc1C(N)=O)CC2`: the Ki in assay [1] is 74.5 nM; in assay [2], > 1000 nM. Also, the Ratio Ki in assay [3] is > 13.
On to `Cc1ccccc1NC(=N)Nc1ccccc1C` [DITOLYLGUANIDINE], for which, in assay [1], the Ki turned out to be 19.4 nM.
With `Cc1nn(-c2ccc(C(N)=O)c(NC3CC4CCCC(C3)N4)c2)c2c1C(=O)CC(C)(C)C2` (centres undefined), the figures for the Ki in assay [1] and in assay [2] were 46.6 nM and > 1000 nM, respectively. The Ratio Ki in assay [3] is > 21.
Turning to `COc1cc2c(cc1OC)CN(CCCCNc1cc(-n3nc(C)c4c3CC(C)(C)CC4=O)ccc1C(N)=O)CC2`, the Ki in assay [1] was 142 nM; in assay [2], > 1000 nM. Moreover, the Ratio Ki in assay [3] is > 7.
As for `COc1cc2c(cc1OC)CN(CCNc1cc(-n3nc(C)c4c3CC(C)(C)CC4=O)ccc1C(N)=O)CC2`, the Ki in assay [1] was 820 nM; in assay [2], > 1000 nM.
In the case of `COc1cc2c(cc1OC)CN(CCCCCCNc1cc(-n3nc(C)c4c3CC(C)(C)CC4=O)ccc1C(N)=O)CC2`, the results for the Ki in assay [1] and in assay [2] were 21500 nM and > 1000 nM, respectively.
